Assay [1] addresses Human α2δ-1 subunit of Cav2.2 calcium channel (Homo sapiens, UniProt P54289). The assay can be described thus: Human α2δ-1 subunit of Cav2.2 calcium channel assay ([3H]-gabapentin binding). As to conditions: binding to the α2δ-1 subunit of voltage-gated calcium channels, expressed as Ki class; + also covers inhibition between 1% and 50%. An outline of the steps: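 Human α2δ-1 enriched membranes (2.5 μg) incubated 60 min at 27° C. with 15 nM [3H]-gabapentin in 10 mM Hepes-KOH pH 7.4; non-specific binding with 10 μM pregabalin. Filtration binding; % inhibition at 1 or 10 μM, or Ki from five concentrations.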

The target of another assay is T1, Human σ1 receptor (Homo sapiens, UniProt Q99720).
T1 construct: expressed in transfected cells; host or cells: HEK-293
T1 sequence (Q99720 whole entry): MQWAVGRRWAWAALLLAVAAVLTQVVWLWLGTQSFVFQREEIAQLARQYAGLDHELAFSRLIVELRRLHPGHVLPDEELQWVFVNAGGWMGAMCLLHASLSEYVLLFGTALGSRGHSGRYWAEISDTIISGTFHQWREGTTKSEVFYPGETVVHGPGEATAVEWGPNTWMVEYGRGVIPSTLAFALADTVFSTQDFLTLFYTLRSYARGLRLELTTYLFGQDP
The assay is described as follows: Human σ1 receptor radioligand assay ([3H](+)-pentazocine binding). As to conditions: binding to the σ1 receptor, expressed as Ki class; + also covers inhibition between 1% and 50%. The procedure, abridged:
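Membranes (7 μg) were incubated with 5 nM [3H](+)-pentazocine in 50 mM Tris-HCl pH 8 for 120 min at 37° C. Non-specific binding was defined with 10 μM haloperidol. Values are % inhibition at 1 or 10 μM or Ki from five concentrations, read by filtration and scintillation counting.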

Chain of Human α2δ-1 subunit of Cav2.2 calcium channel (P54289 25-1103): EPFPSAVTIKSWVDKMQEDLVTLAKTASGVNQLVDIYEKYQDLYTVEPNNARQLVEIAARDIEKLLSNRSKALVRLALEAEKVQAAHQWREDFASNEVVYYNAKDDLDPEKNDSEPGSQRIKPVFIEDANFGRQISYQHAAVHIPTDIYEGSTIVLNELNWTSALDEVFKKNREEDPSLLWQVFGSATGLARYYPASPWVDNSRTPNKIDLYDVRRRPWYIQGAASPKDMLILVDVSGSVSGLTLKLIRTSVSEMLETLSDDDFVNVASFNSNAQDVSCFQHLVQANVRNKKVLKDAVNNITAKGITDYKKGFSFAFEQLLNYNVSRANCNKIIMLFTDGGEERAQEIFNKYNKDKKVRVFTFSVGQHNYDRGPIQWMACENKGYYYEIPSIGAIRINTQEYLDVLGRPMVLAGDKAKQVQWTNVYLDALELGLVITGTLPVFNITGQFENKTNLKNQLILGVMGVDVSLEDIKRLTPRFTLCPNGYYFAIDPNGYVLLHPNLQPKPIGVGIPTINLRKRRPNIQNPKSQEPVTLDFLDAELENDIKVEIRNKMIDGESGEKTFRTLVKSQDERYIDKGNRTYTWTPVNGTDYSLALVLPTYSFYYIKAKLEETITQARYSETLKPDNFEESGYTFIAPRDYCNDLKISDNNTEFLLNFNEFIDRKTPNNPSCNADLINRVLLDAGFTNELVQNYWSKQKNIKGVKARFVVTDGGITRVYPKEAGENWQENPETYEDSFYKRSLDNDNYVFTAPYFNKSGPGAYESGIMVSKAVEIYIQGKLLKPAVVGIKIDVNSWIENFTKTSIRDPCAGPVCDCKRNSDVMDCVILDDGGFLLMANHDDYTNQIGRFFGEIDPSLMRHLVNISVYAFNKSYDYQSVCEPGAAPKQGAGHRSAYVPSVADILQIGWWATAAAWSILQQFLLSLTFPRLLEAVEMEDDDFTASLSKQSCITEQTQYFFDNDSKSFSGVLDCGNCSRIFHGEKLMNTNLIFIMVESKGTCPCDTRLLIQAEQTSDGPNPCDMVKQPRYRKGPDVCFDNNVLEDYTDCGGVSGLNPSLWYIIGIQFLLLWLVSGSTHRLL

As a reminder, the Ki is a dissociation constant, usually derived from enzyme kinetics or from competition with a known ligand. Turning to `CCCC(c1nc2ccc(Br)cc2c(=O)n1CC)N1CCCNCC1` (stereo not drawn) [Example 2, 2-(1-(1,4-diazepan-1-yl)butyl)-6-bromo-3-ethylquinazolin-4(3H)-one], the Ki in assay [1] is less than 500 nM; on Human σ1 receptor, more than 1000 nM.
Consider `CCCC(c1nc2c(Cl)cc(Br)cc2c(=O)n1CC)N1CCCN(C)CC1` (stereo not drawn) [Example 49, 6-bromo-8-chloro-3-ethyl-2-(1-(4-methyl-1,4-diazepan-1-yl)butyl)quinazolin-4(3H)-one], for which the Ki in assay [1] is more than 5000 nM; on Human σ1 receptor, 500 to 1000 nM.
The corresponding values for `CCC[C@H](c1nc2ccc(F)cc2c(=O)n1C)N1CCCN(C)CC1` [Example 216, (R)-6-fluoro-3-methyl-2-(1-(4-methyl-1,4-diazepan-1-yl)butyl)quinazolin-4(3H)-one] are 500 to 5000 nM and less than 500 nM.
On to `CCCC(c1nc2cc(Br)c(F)cc2c(=O)n1CC)N1CCCN(C)CC1` (stereo not drawn) [Example 33, 7-bromo-3-ethyl-6-fluoro-2-(1-(4-methyl-1,4-diazepan-1-yl)butyl)quinazolin-4(3H)-one], for which the Ki (in assay [1]; on Human σ1 receptor) was less than 500 nM each time.
Regarding `CCC[C@H](c1nc2ccc(Br)cc2c(=O)n1CC)N1CCN(C)C[C@H](COC)C1` [Example 105, 6-Bromo-3-ethyl-2-((R)-1-((S)-6-(methoxymethyl)-4-methyl-1,4-diazepan-1-yl)butyl)quin-4 (3H)-one], the Ki is 500 to 5000 nM in assay [1] and more than 1000 nM at Human σ1 receptor.
Consider `CCC[C@@H](c1nc2cc(F)c(Br)cc2c(=O)n1CC)N1CCCN(C)CC1` [Example 156, (S)-6-bromo-3-ethyl-7-fluoro-2-(1-(4-methyl-1,4-diazepan-1-yl)butyl)quinazolin-4(3H)-one], for which the results for the Ki (in assay [1]; at Human σ1 receptor) were more than 5000 nM and 500 to 1000 nM, respectively.
Regarding `CCC[C@H](c1nc2ccc(F)c(F)c2c(=O)n1CC)N1CCN[C@H](C)CC1` [Example 239, 3-ethyl-5,6-difluoro-2-((R)-1-((R)-5-methyl-1,4-diazepan-1-yl)butyl)quinazolin-4(3H)-one], the results for the Ki (in assay [1]; on Human σ1 receptor) were more than 5000 nM and more than 1000 nM, respectively.
`CCCC(c1nc2ccc(Cl)cc2c(=O)n1CCC)N1CCCN(C)CC1` (stereo not drawn) [Example 23, 6-chloro-2-(1-(4-methyl-1,4-diazepan-1-yl)butyl)-3-propylquinazolin-4(3H)-one]: the Ki is less than 500 nM in assay [1] and 500 to 1000 nM on Human σ1 receptor.
The corresponding values for `CCCC(c1nc2ccc(Cl)cc2c(=O)n1CC)N1CCCN(C)CC1` (stereo not drawn) [Example 19, 6-chloro-3-ethyl-2-(1-(4-methyl-1,4-diazepan-1-yl)butyl)quinazolin-4(3H)-one] are less than 500 nM and 500 to 1000 nM.
Turning to `CCC[C@H](c1nc2ccc(Br)cc2c(=O)n1CCC)N1CCNC[C@@H](C)C1` [Example 68, 6-bromo-2-((R)-1-((R)-6-methyl-1,4-diazepan-1-yl)butyl)-3-propylquinazolin-4(3H)-one], the Ki in assay [1] is less than 500 nM; at Human σ1 receptor it was more than 1000 nM.
In the case of `CCC[C@H](c1nc2ccc(F)cc2c(=O)n1C)N1CCN[C@H](C)CC1` [Example 255, 6-fluoro-3-methyl-2-((R)-1-((R)-5-methyl-1,4-diazepan-1-yl)butyl)quinazolin-4(3H)-one], the values for the inhibition constant Ki (in assay [1]; at Human σ1 receptor) were more than 5000 nM and more than 1000 nM, respectively.
For `CC[C@@H]1CCn2c(nc3ccc(Br)cc3c2=O)[C@H]1N1CCCN(C)CC1` [Example 269, (6S,7R)-2-Bromo-7-ethyl-6-(4-methyl-1,4-diazepan-1-yl)-8,9-dihydro-6H-pyrido[2,1-b]quinazolin-11(7H)-one], in that order: more than 5000 nM and 500 to 1000 nM.
In the case of `CCC[C@H](c1nc2cc(F)c(OC)cc2c(=O)n1CC)N1CCN(C)C[C@H](C)C1` [Example 238, 2-((R)-1-((S)-4,6-dimethyl-1,4-diazepan-1-yl)butyl)-3-ethyl-7-fluoro-6-methoxyquinazolin-4(3H)-one], the results for the Ki (in assay [1]; on Human σ1 receptor) were less than 500 nM and 500 to 1000 nM, respectively.
Take `CCC[C@H](c1nc2ccc(F)cc2c(=O)n1C(C)C)N1CCCN(CC)CC1` [Example 223, (R)-2-(1-(4-ethyl-1,4-diazepan-1-yl)butyl)-6-fluoro-3-isopropylquinazolin-4(3H)-one]: the results for the Ki (in assay [1]; on Human σ1 receptor) were more than 5000 nM and less than 500 nM, respectively.
Regarding `CCCC(c1nc2ccc(F)cc2c(=O)n1CC)N1CCCN(C)CC1` (stereo not drawn) [Example 21, 3-ethyl-6-fluoro-2-(1-(4-methyl-1,4-diazepan-1-yl)butyl)quinazolin-4(3H)-one], the Ki (in assay [1]; on Human σ1 receptor) was less than 500 nM throughout.
With `CCC[C@H](c1nc2ccc(F)cc2c(=O)n1CC)N1CCCN[C@@H](C)C1` [Example 145, 3-ethyl-6-fluoro-2-((R)-1-((S)-3-methyl-1,4-diazepan-1-yl)butyl)quinazolin-4(3H)-one], the Ki in assay [1] is less than 500 nM; on Human σ1 receptor, more than 1000 nM.
Regarding `CCCC(c1nc2cccc(Br)c2c(=O)n1CC)N1CCCN(C)CC1` (stereo not drawn) [Example 53, 5-bromo-3-ethyl-2-(1-(4-methyl-1,4-diazepan-1-yl)butyl)quinazolin-4(3H)-one], the Ki in assay [1] is 500 to 5000 nM; at Human σ1 receptor, less than 500 nM.
As for `CCCC(c1nc2ccc(O)cc2c(=O)n1CC)N1CCCN(C)CC1` (stereo not drawn) [Example 203, 3-Ethyl-6-hydroxy-2-(1-(4-methyl-1,4-diazepan-1-yl)butyl)quinazolin-4(3H)-one], the Ki in assay [1] was less than 500 nM; at Human σ1 receptor, more than 1000 nM.
With `CCC[C@H](c1nc2cc(F)c(Br)cc2c(=O)n1CC)N1CCCN(C)CC1` [Example 155, (R)-6-Bromo-3-ethyl-7-fluoro-2-(1-(4-methyl-1,4-diazepan-1-yl)butyl)quinazolin-4(3H)-one], the values for the Ki (in assay [1]; at Human σ1 receptor) were more than 5000 nM and more than 1000 nM, respectively.
Turning to `CCC[C@@H](c1nc2cc(Cl)c(Cl)cc2c(=O)n1CC)N1CCN(C)C[C@@H](C)C1` [Example 134, 6,7-dichloro-2-((S)-1-((R)-4,6-dimethyl-1,4-diazepan-1-yl)butyl)-3-ethylquinazolin-4(3H)-one], the values for the inhibition constant Ki (in assay [1]; at Human σ1 receptor) were more than 5000 nM and 500 to 1000 nM, respectively.
Take `CCC[C@H](c1nc2ccc(Cl)cc2c(=O)n1C)N1CC[C@@H](C)N(C)CC1` [Example 257, 6-chloro-2-((R)-1-((R)-4,5-dimethyl-1,4-diazepan-1-yl)butyl)-3-mehtylquinazolin-4(3H)-one]: the Ki in assay [1] is more than 5000 nM; at Human σ1 receptor, less than 500 nM.
For `CCCC(c1nc2ccc(Br)c(Cl)c2c(=O)n1CC)N1CCCNCC1` (stereo not drawn) [Example 82, 2-(1-(1,4-diazepan-1-yl)butyl)-6-bromo-5-chloro-3-ethylquinazolin-4(3H)-one], in that order: 500 to 5000 nM and 500 to 1000 nM.
As to `CCC[C@H](c1nc2ccc(F)cc2c(=O)n1CC)N1CCN[C@H](C)CC1` [Example 235, 3-ethyl-6-fluoro-2-((R)-1-((R)-5-methyl-1,4-diazepan-1-yl)butyl)quinazolin-4(3H)-one], the Ki in assay [1] was less than 500 nM; at Human σ1 receptor, more than 1000 nM.
For `CCC[C@@H](c1nc2ncc(Br)cc2c(=O)n1CC)N1CCN(C)C[C@H](C)C1` [Example 188, 6-bromo-2-((S)-1-((S)-4,6-dimethyl-1,4-diazepan-1-yl)butyl)-3-ethylpyrido[2,3-d]pyrimidin-4(3H)-one], in that order: more than 5000 nM and more than 1000 nM.

Values taken from US12479830B2, “Homopiperazinyl and homopiperidinyl quinazolin-4(3H)-one derivatives having multimodal activity against pain” (ESTEVE PHARMACEUTICALS, S.A., priority 2019, dated 2025).
